Columns and labels:
[1] = tested on: MCF7 cell; experiment: Inhibition of proliferation of MCF7 cell (CellTiter-Glo, 144 hours); format: cell-based; settings: Homo sapiens; for IC50: MCF7, CellTiter-Glo, read-out: IC50 of the inhibitory effect on the proliferation of MCF7 cell; for Emax: MCF7 cell proliferation, read-out: Maximum inhibition
Protocol: (§1) MCF7 cells (ATCC, HTB-22) were cultured in MEM (GE Healthcare, SH30024.01) complete medium containing 10% fetal bovine serum. On the first day of the experiment, MCF7 cells were seeded in a 96-well plate with the complete medium at a density of 3,000 cells/well (100 μl of cell suspension per well), and the plate was incubated in a cell incubator at 37° C. and 5% CO2 overnight. On the second day, the medium in each well was replaced with 135 μl of MEM incomplete medium containing 2% fetal bovine serum. 15 μl of test compound solution of different concentrations formulated with the incomplete medium was added to each well, wherein the final concentrations of the compound were nine concentration points obtained by a 4-fold gradient dilution starting from 100 nM. A blank control containing 0.5% DMSO was set. The plate was incubated in a cell incubator at 37° C. and 5% CO2 for 144 hours. On the eighth day, the 96-well plate was taken out, and 150 μl of CellTiter-Glo® Luminescent Cell Viability Assay (Promega, G7573) was added to each well. The plate was left to stand at room temperature for 10 minutes, and the luminescence signal values were measured using a multi-label microplate reader (PerkinElmer, VICTOR 3). The IC50 values of the inhibitory activity of the compounds were calculated based on the concentrations and luminescence signal values of the compounds using Graphpad Prism software.
A graph of the chemiluminescence signal values versus the logarithmic concentrations of the compound was made using Graghpad Prism to obtain the IC50 values of the compound.

[2] = tested on: estrogen receptor reporter gene; experiment: Inhibition of estrogen receptor reporter gene activity (ERE-luc luciferase) in MCF7/ERE-luc cells; format: cell-based; settings: Homo sapiens, 0.1 nM β-estradiol, 20 hours, read-out: IC50 of inhibitory activity on the activity of the estrogen receptor reporter gene
Protocol: MCF7 cells MCF7/ERE-luc (ATCC, HTB-22) expressing the luciferase reporter gene ERE-luc (synthesized by GENEWIZ, Inc.) controlled by the estrogen receptor response element were cultured in MEM (GE Healthcare, SH30024.01) medium containing 10% fetal bovine serum and 500 µg/ml G418. On the first day of the experiment, MCF7/ERE-luc cells were seeded in a 96-well plate with incomplete MEM medium containing 10% fetal bovine serum treated with activated charcoal (BioSun, BS-0004-500) at a density of 30,000 cells/well (100 μl of cell suspension per well), and the plate was incubated in a cell incubator at 37° C. and 5% CO2 overnight. On the second day, 10 μl of β-estradiol (SIGMA, E2758-250MG) solution formulated with the above incomplete medium or test compound solution of different concentrations formulated with the above incomplete medium was added to each well, wherein the final concentration of β-estradiol was 0.1 nM, and the final concentrations of the compound were nine concentration points obtained by a 10-fold gradient dilution starting from 10 μM, a blank control containing 0.5% DMSO was set, and the plate was incubated in a cell incubator at 37° C. and 5% CO2 for 20 hours. On the third day, the 96-well plate was taken out, and 100 μl of ONE-Glo™ Luciferase Assay system (Promega, E6110) was added to each well to determine the activity of luciferase. The plate was left to stand at room temperature for 3 minutes until the cells were fully lysed, and the luminescence signal values were measured using a multi-label microplate reader (PerkinElmer, VICTOR 3). The IC50 values of the inhibitory activity of the compounds were calculated using Graphpad Prism software based on the concentrations and luminescence signal values of the compounds.
The inhibitory effect of the compounds of the present disclosure on the activity of the estrogen receptor reporter gene was determined by the above test. A graph of the chemiluminescence signal values versus the logarithmic concentrations of the compound was made using Graghpad Prism.

[3] = biological target: estrogen receptor ERα Y537S mutant-type (Homo sapiens (Human), UniProt P03372, Y537S); experiment: Covalent modification of ERα Y537S mutant-type LBD by high-resolution mass spectrometry; format: binding; settings: after 24 hours; 2 μM protein, 10 μM compound, 4° C.
Protocol: (§2) The ligand binding domain (LBD, aa296-554) of estrogen receptor ERα wild-type and ERα Y537S mutant-type was expressed in E. coli and purified. 2 μM ERα wild-type or ERα Y537S mutant-type protein and 10 μM compound were added to a buffer solution containing 50 mM Tris-HCl, pH7.5, 150 mM NaCl, 1 mM TCEP and 5% glycerol and mixed well. The solution was incubated at 4° C. for 24 hours, followed by high-resolution mass spectrometry (Agilent Technologies, Agilent Q-tof 6530) assay. Alternatively, 1 μM ERα wild-type or ERα Y537S mutant-type protein and 3 μM compound were added to a buffer solution containing 50 mM Tris-HCl, pH7.5, 150 mM NaCl, 1 mM TCEP and 5% glycerol and mixed well. The solution was incubated at 37° C. for 15 minutes, followed by high-resolution mass spectrometry assay. In the mass spectrometry assay results, the peak whose molecular weight is the sum of the molecular weight of the protein and compound is the product of covalent modification. The percentage of covalent modification is obtained by calculating the ratio of […] to total protein.

[4] = biological target: estrogen receptor ERα wild-type (Homo sapiens (Human), UniProt P03372); experiment: Covalent modification of ERα wild-type LBD by high-resolution mass spectrometry; format: binding; settings: after 24 hours; 2 μM protein, 10 μM compound, 4° C.
Protocol: as §2

[5] = tested on: MCF7 D538G; experiment: Inhibition of proliferation of MCF7 cell expressing ERα D538G mutant; format: cell-based; settings: Homo sapiens, 144 hours; for Emax: read-out: Maximum inhibition
Source text: (§3) The mutants ERα Y537S and ERα D538G of human estrogen receptor α (ERαs) protein were obtained by site-directed mutagenesis using the cDNA of wild-type ESR1 gene (Accession No. NM000125) as a template according to double-primer PCR. The primer sequences used for mutagenesis are as follows (the nucleotides underlined are the sites of mutagenesis):
(§4) The cDNA of mutant ESR1 was cloned into the target lentiviral vector pCDH-CMV-MCS-EF1-Puro (SBI, CD510B-1). The lentiviral plasmid with the mutant ESR1 gene sequence and the lentiviral packaging plasmids pVSV-G and pCMV-dR8.91 (SBI, LV500A-1) were transfected into HEK-293T cells (ATCC, CRL-3216) by Lipofectamine 3000 Transfection Reagent (ThermoFisher Scientific, Cat #L3000075). 48 hours after the transfection, the supernatant of the virus-containing DMEM high-glycemic medium (GE Healthcare, SH30243.01) containing 10% FBS was filtered, and ultracentrifuged to obtain the virus pellet. The virus pellet was resuspended in an appropriate amount of MEM medium (GE Healthcare, SH30024.01) containing 10% FBS, non-essential amino acids (SIGMA, M7145-100ML) and sodium pyruvate (SIGMA, S8636-100ML), and the resulting suspension was added to MCF7 cells (ATCC, HTB-22). Polybrene (SIGMA, H9268-5G) at a final concentration of 8 µg/ml was added, and the cells were incubated overnight. Two days after the transfection, […] puromycin (invitrogen, A11138-03) was added to the cell culture medium for resistance screening. After about two weeks, the MCF7 cell line capable of stably expressing ERαY537S and ERα D538G mutants was obtained.
as §1, with “MCF7 cells expressing ERα mutant were cultured” for “MCF7 cells (ATCC, HTB-22) were cultured”, “the experiment, the cells were” for “the experiment, MCF7 cells were”, “control containing 0.500 DMSO was” for “control containing 0.5% DMSO was”, “C. and […] for” for “C. and 5% CO2 for”, “and 150 of CellTiter-Glo®” for “and 150 μl of CellTiter-Glo®”

[6] = tested on: MCF7 ERαY537S; experiment: Inhibition of proliferation of MCF7 cell expressing ERα Y537S mutant; format: cell-based; settings: Homo sapiens, 144 hours; for Emax: read-out: Maximum inhibition
Source text: as §3, §4
as §1, with “MCF7 cells expressing ERα mutant were cultured” for “MCF7 cells (ATCC, HTB-22) were cultured”, “the experiment, the cells were” for “the experiment, MCF7 cells were”, “control containing 0.500 DMSO was” for “control containing 0.5% DMSO was”, “C. and […] for” for “C. and 5% CO2 for”, “and 150 of CellTiter-Glo®” for “and 150 μl of CellTiter-Glo®”

estrogen receptor ERα wild-type, sequence (P03372 296-554): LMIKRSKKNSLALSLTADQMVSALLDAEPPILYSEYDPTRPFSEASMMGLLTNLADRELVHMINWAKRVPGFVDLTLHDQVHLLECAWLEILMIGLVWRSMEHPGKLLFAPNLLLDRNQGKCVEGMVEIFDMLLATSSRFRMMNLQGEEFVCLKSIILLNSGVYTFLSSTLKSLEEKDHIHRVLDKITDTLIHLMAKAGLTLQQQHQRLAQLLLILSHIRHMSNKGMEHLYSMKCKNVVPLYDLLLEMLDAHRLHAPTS
estrogen receptor ERα Y537S mutant-type, sequence (P03372 296-554 Y537S): as the sequence (P03372 296-554) above, with Y242S counted along it

| SMILES | IC50 [1] [nM] | Emax [1] [%] | IC50 [2] [nM] | Covalent modification effect on the estrogen receptor ERα Y537S mutant-type [3] [%] | Covalent modification effect on the estrogen receptor ERα wild-type [4] [%] | IC50 [5] [nM] | Emax [5] [%] | IC50 [6] [nM] | Emax [6] [%] |
| --- | --- | --- | --- | --- | --- | --- | --- | --- | --- |
| O=C(/C=C/CNC1(COc2ccc(/C(=C(/CC(F)(F)F)c3ccccc3)c3ccc4[nH]nc(F)c4c3)cn2)CC1)N1CCCC1 [Example 2, (E)-1-(Pyrrolidin-1-yl)-4-((1-(((5-((Z)-4,4,4-trifluoro-1-(3-fluoro-1H-indazol-5-yl)-2-phenylbut-1-en-1-yl)pyridin-2-yl)oxy)methyl)cyclopropyl)amino)but-2-en-1-one] | 0.6 | 112 | 3 | 90 | 87 | 2 | 104 | 3 | 107 |
| CN(C)C(=O)/C=C/CNC1(COc2ccc(/C(=C(/CC(F)(F)F)c3ccccc3)c3ccc4[nH]nc(F)c4c3)cn2)CCCCC1 [Example 8, (E)-N,N-Dimethyl-4-((1-(((5-((Z)-4,4,4-trifluoro-1-(3-fluoro-1H-indazol-5-yl)-2-phenylbut-1-en-1-yl)pyridin-2-yl)oxy)methyl)cyclohexyl)amino)but-2-enamide] | 0.1 | 113 | 3 | 97 | 96 | 1 | 103 | 2 | 107 |
| O=C(/C=C/CN1CCC[C@@H](Oc2ccc(/C(=C(/CC(F)(F)F)c3ccccc3)c3ccc4[nH]nc(F)c4c3)cn2)C1)N1CCOCC1 [Example 12, (E)-1-Morpholino-4-((R)-3-((5-((Z)-4,4,4-trifluoro-1-(3-fluoro-1H-indazol-5-yl)-2-phenylbut-1-en-1-yl)pyridin-2-yl)oxy)piperidin-1-yl)but-2-en-1-one] | 0.4 | 108 | 2 | 83 | 85 | 1 | 96 | 2 | 104 |
| O=C(/C=C/CN1CCC[C@@H](Oc2ccc(/C(=C(/CC(F)(F)F)c3ccccc3)c3ccc4[nH]nc(F)c4c3)cn2)C1)N1CCNCC1 [Example 18, (E)-1-(Piperazin-1-yl)-4-((R)-3-((5-((Z)-4,4,4-trifluoro-1-(3-fluoro-1H-indazol-5-yl)-2-phenylbut-1-en-1-yl)pyridin-2-yl)oxy)piperidin-1-yl)but-2-en-1-one] | 1 | 100 | 6 | 99 | 98 | 5 | 104 | 8 | 92 |
| CN(C)C(=O)/C=C/CN[C@H]1CCN(c2ccc(/C(=C(/CC(F)(F)F)c3ccccc3)c3ccc4[nH]nc(F)c4c3)cn2)C1 [Example 35, (E)-N,N-Dimethyl-4-(((S)-1-(5-((Z)-4,4,4-trifluoro-1-(3-fluoro-1H-indazol-5-yl)-2-phenylbut-1-en-1-yl)pyridin-2-yl)pyrrolidin-3-yl)amino)but-2-enamide] | 1.1 | 105 | 4 | – | – | 3 | 104 | 6 | 97 |
| CN(C)C(=O)/C=C/CNC1CCN(c2ccc(/C(=C(/CC(F)(F)F)c3ccccc3)c3ccc4[nH]nc(F)c4c3)cn2)CC1 [Example 36, (E)-N,N-Dimethyl-4-((1-(5-((Z)-4,4,4-trifluoro-1-(3-fluoro-1H-indazol-5-yl)-2-phenylbut-1-en-1-yl)pyridin-2-yl)piperidin-4-yl)amino)but-2-enamide] | 0.5 | 104 | 5 | – | – | 2 | 99 | 3 | 100 |
| CN(C)C(=O)/C=C/CN(C)[C@H]1CCCN(c2ccc(/C(=C(/CC(F)(F)F)c3ccccc3)c3ccc4[nH]nc(F)c4c3)cn2)C1 [Example 37, (E)-N,N-Dimethyl-4-(methyl((S)-1-(5-((Z)-4,4,4-trifluoro-1-(3-fluoro-1H-indazol-5-yl)-2-phenylbut-1-en-1-yl)pyridin-2-yl)piperidin-3-yl)amino)but-2-enamide] | 0.8 | 98 | 8 | – | – | 2 | 101 | 3 | 86 |
